These results are taken from patent US9078874B2, “Composition and method for treating cognitive impairments in down syndrom subjects” (Centre National De La Recherche Scientifique—CNRS, priority 2009, dated 2015).

In data set [1] the test system is children with Down syndrome. As to conditions: 7 to 13 year-old children with Down syndrome; even at doses associated with adverse effects; cited from earlier work.
In data set [2] the test system is cognitively-normal wildtype rodents. The settings on record: cited from earlier work.
The conditions of data set [3]: in vivo; cited from earlier work.
The test system of the next data set is euploid and Ts65Dn mice. Nature of the data set: Pro-convulsant effects after pentylenetetrazol (45 mg/kg). Type of data set: in vivo. As to conditions: sub-convulsant dose 45 mg/kg i.p. As for the experimental part:
For testing the pro-convulsant effects of α5IA, a sub-convulsant dose of pentylenetetrazole (45 mg/kg i.p.) that induces myoclonic convulsions in about 50% of mice was injected i.p. 20 min after injection of α5IA (50 mg/kg) or placebo.
The proconvulsant action of the α5IA was measured after injection of a subconvulsive dose of pentylenetetrazole. Mice were injected with either vehicle or the α5IA (50 mg/kg i.p) and 20 min later they received an intraperitoneal injection of 45 mg/kg of pentylenetetrazole. […] Six to 7 mice were used for each condition. The latency to the first myoclonic jerk episode and the convulsion grade were recorded during a 1200-s period of observation. Four grades were empirically determined: Grade 0: no effect; grade 1: tail up and curved; grade 2: reversed tail and convulsive shivers; grade 3: myoclonic convulsions.
We then tested the proconvulsant effect of α5IA by injecting it (50 mg/kg) 20 min before a sub-convulsant dose of pentylenetetrazol (45 mg/kg) that induces myoclonic convulsions in about 50% of mice.

Another data set concerns Ts65Dn mice. The settings on record: mouse, in vivo; cited from earlier work.

The structures appear in SMILES notation.

Regarding `NC(=O)CN1CCCC1=O` [piracetam], the “cognitive and behavioural measures” value in data set [1] is “neither cognitive nor behavioural measures demonstrated improvement”. As to `CCOC(=O)c1ncn2c1[C@@H]1CCCN1C(=O)c1cc(OC)ccc1-2` [L-655,708], in data set [2], the “acquisition in the reference memory water maze test” value is on record as “can facilitate acquisition”.

Take `COC(=O)c1cc2c(cn1)[nH]c1ccccc12` [β-CCM]: in data set [3], the convulsant liability entry is listed as “proconvulsant or convulsant” and the “spatial learning in the Morris watermaze” value was “enhanced spatial learning”. For `C1CCc2nnnn2CC1` [pentylenetetrazole], the “mice with myoclonic convulsions” value in the data set with euploid and Ts65Dn mice is on record as “about 50 % of mice”. The “acquisition in the reference memory water maze test” value in data set [2] was “can facilitate acquisition”. Besides, the “cognition enhancement effect in treated mice compared to control non-treated mice” value in the data set on Ts65Dn mice is listed as “did not show a cognition enhancement effect”.
